Values quoted from earlier work as cited in patent US20100222262A1, “SUBSTITUTED 1, 3-CYCLOPENTADIONE ATTENUATED ENDOTHELIAL INFLAMMATION AND ENDOTHELIAL-MONOCYTE INTERACTIONS” (METAPROTEOMICS, LLC, priority 2008, published 2010).

Tested on: 85 Kinases
Conditions: not given

Row | Compound | G10 (Gini coefficient) | hit rate (>50% Inhibition)
1 | C[S+]([O-])c1ccc(-c2nc(-c3ccncc3)c(-c3ccc(F)cc3)[nH]2)cc1 (stereo not drawn) [SB203580] | 0.621 | 17
2 | CC[C@H](CO)Nc1nc(NCc2ccccc2)c2ncn(C(C)C)c2n1 [Roscovitine] | 0.744 | 10

Same assay, conditions: 85 kinases; Concn 0.001 uM

Row | Compound | G10 (Gini coefficient) | hit rate (>50% Inhibition)
3 | COc1cc2ncnc(Nc3cccc(Br)c3)c2cc1OC [PD153035] | 0.616 | 0

Same assay, conditions: 85 kinases; Concn 1 uM

Row | Compound | G10 (Gini coefficient) | hit rate (>50% Inhibition)
4 | CCCCCCOC(=O)[C@]1(O)C[C@@H]2O[C@@]1(C)n1c3ccccc3c3c4c(c5c6ccccc6n2c5c31)C(=O)NC4 [KT5720] | 0.423 | 33
5 | Nc1ncnc2c1cnn2-c1ccccc1 [PP3] | 0.634 | 0
6 | O=C(O)c1cc(N(Cc2ccccc2O)Cc2ccccc2O)ccc1O [Lavendustin B] | 0.515 | 0
7 | O=C(O)c1cc(N(Cc2ccccc2O)Cc2cc(O)ccc2O)ccc1O [Lavendustin A] | 0.726 | 0
8 | CC(C)(C)n1nc(-c2ccc(Cl)cc2)c2c(N)ncnc21 [PP2] | 0.722 | 14
9 | O=C1Cc2c([nH]c3ccc([N+](=O)[O-])cc23)-c2ccccc2N1 [Alsterpaullone] | 0.633 | 22
10 | CN[C@@H]1C[C@H]2O[C@@](C)([C@@H]1OC)n1c3ccccc3c3c4c(c5c6ccccc6n2c5c31)C(=O)NC4 [Staurosporine] | 0.093 | 
11 | Cn1cc(C2=C(c3cn(CCCSC(=N)N)c4ccccc34)C(=O)NC2=O)c2ccccc21 [Ro31-8220] | 0.432 | 39
12 | CN(C)S(=O)(=O)c1ccc2c(c1)/C(=C/c1cc3c([nH]1)CCCC3)C(=O)N2 [SU6656] | 0.607 | 19

Same assay, conditions: 85 kinases; Concn 10 uM

Row | Compound | G10 (Gini coefficient) | hit rate (>50% Inhibition)
13 | N#C/C(=C\c1ccc(O)c(O)c1)C(=O)c1ccc(O)c(O)c1 [AG538] | 0.417 | 17
14 | Calphostin C | 0.606 | 2
15 | CCOc1cc(/C=C(\C#N)C(N)=O)cc(CSc2ccccc2)c1O [ST638] | 0.568 | 14
16 | O=S(=O)(NCCNC/C=C/c1ccc(Br)cc1)c1cccc2cnccc12 [H89] | 0.442 | 34
17 | O=C(O[C@@H]1Cc2c(O)cc(O)cc2O[C@@H]1c1cc(O)c(O)c(O)c1)c1cc(O)c(O)c(O)c1 [EGCG] | 0.495 | 21
18 | N#CC(C#N)=Cc1ccc(O)c(O)c1 [AG18] | 0.680 | 1
19 | C[C@@H](N)[C@H]1CC[C@H](C(=O)Nc2ccncc2)CC1 [Y27632] | 0.628 | 13
20 | CC(=O)c1c(O)c(C)c(O)c(Cc2c(O)c3c(c(C(=O)/C=C/c4ccccc4)c2O)OC(C)(C)C=C3)c1O [Rottlerin] | 0.595 | 3
21 | O=c1cc(O)cc(/C=C/c2ccc(O)c(O)c2)o1 [Hispidin] | 0.790 | 2
22 | COc1cc2ncnc(Nc3cccc(Cl)c3)c2cc1OC [AG1478] | 0.500 | 25
23 | Cc1ccc(NC(=O)c2cccc(N(C)C)c2)cc1NC(=O)c1ccc(O)cc1 [ZM336372] | 0.635 | 11
24 | Oc1ccc(-c2nc(-c3ccncc3)c(-c3ccc(F)cc3)[nH]2)cc1 [SB202190] | 0.553 | 29
25 | O=C1c2ccccc2-c2n[nH]c3cccc1c23 [JNK inh II] | 0.445 | 35
26 | O=S(=O)(c1cccc2cnccc12)N1CCCNCC1 [HA1077] | 0.650 | 19
27 | O=C1NCc2c1c1c3ccccc3[nH]c1c1[nH]c3ccccc3c21 [K252c] | 0.236 | 58
28 | CC(C)(C)c1cc(C=C(C#N)C#N)cc(Br)c1O [AG1024] | 0.568 | 11
29 | O=C(NOCC1CC1)c1ccc(F)c(F)c1Nc1ccc(I)cc1Cl [PD184352] | 0.802 | 1
30 | CO[C@H]1[C@@H](OC)C[C@H](C)[C@@H](OC)C2=CC(=O)C=C(NC(=O)/C(C)=C/C=C\[C@H](OC)[C@@H](OC(N)=O)/C(C)=C/[C@@H]1C)C2=O [Herbimycin A] | 0.534 | 0
31 | O=c1c(-c2ccc(O)cc2)coc2cc(O)cc(O)c12 [Genistein] | 0.582 | 0
32 | N#CC(C#N)=C(N)/C(C#N)=C/c1cc(O)c(O)c(O)c1 [AG183] | 0.460 | 14
33 | COc1cc2ncc(-c3ccccc3)nc2cc1OC [AG1296] | 0.498 | 4

Same assay, conditions: 85 kinases; Concn 50 uM

Row | Compound | G10 (Gini coefficient) | hit rate (>50% Inhibition)
34 | Cn1cnc2c(NCc3ccccc3)nc(NCCO)nc21 [Olomoucin] | 0.556 | 13
35 | COc1cc(/C=C/C(=O)CC(=O)/C=C/c2ccc(O)c(OC)c2)ccc1O [Curcumin] | 0.417 | 38
